Experimental data: patent US8828997B2, “2,3-dihydro-1H-imidazo(1,2-a)pyrimidin-5-one derivatives, preparation thereof, and pharmaceutical use thereof” (Sanofi, priority 2009, dated 2014)

How the values were obtained:
Assay type in all cases: cell-based
[1] = test system: AKT protein phosphorylated on serine 473 (P-AKT-S473) in PC3 human prostate carcinoma cells; test: pAKT expression in PC3 human prostate carcinoma cells measured by MSD Multi-spot Biomarker detection (test B); settings: MSD sandwich immunoassay, 1 to 2 h incubation, absolute IC50
Description: The inhibitory activity of the molecules on AKT phosphorylation is measured either by western blotting using the technique described below, or by the MSD Multi-spot Biomarker detection technique from Meso Scale Discovery also described below.
Study of pAKT Expression in PC3 Human Prostate Carcinoma Cells Measured by the MSD Multi-Spot Biomarker Detection Technique from Meso Scale Discovery (Test B):
This test is based on measuring the expression of the AKT protein phosphorylated on serine 473 (P-AKT-S473), in the PC3 human prostate carcinoma line, by means of the technique based on a sandwich immunoassay using the MSD Multi-spot Biomarker Detection kit from Meso Scale Discovery: phospho-Akt (Ser473) whole cell lysate kit (#K151CAD) or phospho-Akt (Ser473)/Total Akt whole cell lysate kit (#K151OOD). The primary antibody specific for P-AKT-S473 (Kit #K151CAD) is coated onto an electrode in each well of the 96-well plates of the MSD kit: after the addition of a protein lysate to each well, the signal is visualised by adding a secondary detection antibody labelled with an electrochemoluminescent compound. The procedure followed is that described in the kit.
(§1) On day 1, the PC3 cells are seeded into 96-well plates (TPP, #92096) at the concentration of 35 000 cells/well in 200 μl of DMEM medium (DMEM Gibco #11960-044) containing 10% of foetal calf serum (FCS Gibco, #10500-056) and 1% glutamine (L-Glu Gibco #25030-024), and incubated at 37° C., 5% CO2, overnight.
On day 2, the cells are incubated in the presence or absence of the test products for 1 to 2 h at 37° C. in the presence of 5% of CO2. The molecules, diluted in dimethyl sulphoxide (DMSO Sigma #D2650), are added from a 20-times concentrated stock solution, the final percentage of DMSO being 0.1%. The molecules are tested either at a single concentration of less than or equal to 10 μM, or at increasing concentrations in a range that can extend from less than 1 nM to 10 μM.
After this incubation, the cells are lysed for the preparation of the proteins. For this, after the culture medium has been drawn off, 50 μl of complete Tris Lysis Buffer of the MSD kit containing the protease and phosphatase inhibitor solutions are added to the wells and the cells are lysed for 1 h at 4° C. with shaking. At this stage, the plates containing the lysates can be stored at −20° C. or at −80° C.
The wells of the 96-well plates of the MSD kit are saturated for 1 h at ambient temperature with the blocking solution of the MSD kit. Four washes are carried out with 150 μl of Tris Wash Buffer of the MSD kit. The lysates previously prepared are transferred into the 96-well multi-spot plates of the MSD kit and incubated for 1 h at ambient temperature, with shaking. Four washes are carried out with 150 μl of Tris Wash Buffer of the MSD kit. 25 μl of the MSD sulfo-tag detection antibody solution are added to the wells and incubated for 1 h at ambient temperature, with shaking. Four washes are carried out with 150 μl of Tris Wash Buffer of the MSD kit. 150 μl of Read Buffer of the MSD kit are added to the wells and the plates are read immediately on the S12400 instrument from Meso Scale Discovery.
The instrument measures a signal for each well. Wells without cells and containing the lysis buffer serve to determine the background noise that will be subtracted from all the measurements (min). The wells containing cells in the absence of product and in the presence of 0.1% DMSO are considered to be the 100% signal (max). The percentage inhibition is calculated for each concentration of test product according to the following formula: (1-((test−min)/(max−min)))×100.
The activity of the product is translated to IC50, obtained from a dose-response curve of the various concentrations tested and representing the dose giving 50% specific inhibition (absolute IC50). 2 independent experiments make it possible to calculate the mean of the IC50 values.

[2] = test system: P. falciparum (highly chloroquine-resistant strain Fcm29-Cameroon); test: Antimalarial activity test (radioactive micromethod of Desjardins, tritiated hypoxanthine incorporation); settings: Plasmodium falciparum, Erythrocyte, infected human erythrocytes, 48 h
Description: Antimalarial Activity Test
The antimalarial activity tests are carried out according to the radioactive micromethod of Desjardins (R. E. Desjardins, C. J. Canfield, J. D. Haynes, J. D. Chulay, Antimicrob. Agents Chemother., 1979, 16, 710-718). The assays are carried out in 96-well microplates (Test Plates Ref. 92696, Techno Plastic Products Ag, Zollstrasse 155, CH-8219 Trasadingen). The P. falciparum strains are cultured in solutions of RPMI 1640 supplemented with 5% of human serum with a haematocrit at 2% and a blood parasite concentration at 1.5%. For each assay, the parasites are incubated with selected concentrations of drugs for 48 h at 37° C. in a humid atmosphere and at 5% CO2. Artemisinin, artesunate and also chloroquine diphosphate are used as reference molecules. The first dilution of the drug is prepared at 1 mg/ml in dimethyl sulphoxide. The range of dilutions of the successive daughter solutions is also prepared in dimethyl sulphoxide. Each daughter dilution is subsequently diluted to 1/50 in RPMI 1640 supplemented with 5% of human serum, all the dilutions being carried out at 37° C. These dilutions are then added to the parasites in culture in the microplates. After addition of the drug, the parasites are in culture in RPMI 1640 containing 5% of human serum and 1% of dimethyl sulphoxide. The parasite growth is measured by incorporation of tritiated hypoxanthine (added 24 h after the beginning of the exposure to the drug) compared with the incorporation in the absence of drug.
The activity of the product is translated to % inhibition of the growth of P. falciparum (highly chloroquine-resistant strain Fcm29-Cameroon) at 1 μM and 0.1 μM in an in vitro test using infected human erythrocytes.

[3] = test system: translocation of the LC3 protein in Hela GFP-LC3 cells; test: Translocation of the LC3 protein in Hela human cells measured by image analysis cytometry (test C, autophagy); settings: EBSS + 10 μM hydroxychloroquine, cells with LC3 granulations, absolute IC50
Description: Inhibitory activity of the molecules on autophagy is measured by means of the translocation of the LC3 protein from the cytoplasm to the autophagosomes. For this, Hela cells were transfected with a vector encoding the chimeric protein GFP-LC3. A Hela clone stably expressing the GFP-LC3 protein was selected.
Study of the Translocation of the LC3 Protein in Hela Human Cells, Measured by Image Analysis Cytometry (Test C):
as §1, with “Hela GFP-LC3” for “PC3”, “coated with poly-D-lysine (Greiner, #655946)” for “(TPP, #92096)”, “15000” for “35 000”
On day 2, the cells are washed twice with EBSS (Sigma #E3024). The cells are then incubated in EBSS, 10 μM hydroxychloroquine and test products, for 2 hours at 37° C. in the presence of 5% CO2. The molecules are diluted in dimethyl sulphoxide (DMSO Sigma #D2650), the final DMSO percentage being 0.1%. The molecules are tested at increasing concentrations in a range that can extend from 10 nM to 1 μM.
After this incubation, the cells are fixed with 4% paraformaldehyde (Sigma #HT501128 4L) for 10 min. The cells are then washed twice with PBS and the nuclei then stained with 2 μg/ml of Hoechst 33342 (Invitrogen #H3570). The 96-well plates are then read with the iCyte image analysis cytometer (Compucyte).
The activity of the product is translated to IC50, obtained from a dose-response curve of various concentrations tested and representing the dose giving 50% specific inhibition (absolute IC50). 2 independent experiments make it possible to calculate the mean of the IC50 values.

[4] = Homo sapiens, PC-3, P-AKT-S473, PC3 cells

Row | Structure (SMILES) | IC50 [1, 4] [nM] | IC50 ([1]; P-AKT-S473, PC3 cells) [nM] | IC50 ([3]; 2 hours) [nM] | IC50 ([3]; Homo sapiens, HeLa, 2 h) [nM] | inhibition at 0.1 µM ([2]; 0.1 μM) [%] | inhibition at 1 µM [2] [%]
1 | CC(c1ccccc1)N1c2nc(N3CCOCC3)cc(=O)n2C[C@@]1(C)C(F)(F)F (single isomer, unassigned) [Example 32, (2S)-2-Methyl-7-(morpholin-4-yl)-1-[(1R or 1S)-1-phenylethyl]-2-(trifluoromethyl)-2,3-dihydroimidazo[1,2-a]pyrimidin-5(1H)-one] |  | 22 | > 1000 |  |  | 
2 | C[C@@]1(C(F)(F)F)Cn2c(nc(N3CCOCC3)cc2=O)N1Cc1nc2ccccc2o1 [Example 30, (2S)-1-(1,3-Benzoxazol-2-ylmethyl)-2-methyl-7-(morpholin-4-yl)-2-(trifluoromethyl)-2,3-dihydroimidazo[1,2-a]pyrimidin-5(1H)-one] | 89 |  |  | > 1000 |  | 
3 | CC(c1ccccc1F)N1c2nc(N3CCOCC3)cc(=O)n2C[C@@]1(C)C(F)(F)F (single isomer, unassigned) [Example 37, (2S)-1-[(1R or 1S)-1-(2-Fluorophenyl)ethyl]-2-methyl-7-(morpholin-4-yl)-2-(trifluoromethyl)-2,3-dihydroimidazo[1,2-a]pyrimidin-5(1H)-one] |  | 19 | 737 |  |  | 
4 | C[C@@]1(C(F)(F)F)Cn2c(nc(N3CCOCC3)cc2=O)N1Cc1c[nH]c2ccccc12 [Example 33, (2S)-1-(1H-indol-3-ylmethyl)-2-methyl-7-(morpholin-4-yl)-2-(trifluoromethyl)-2,3-dihydroimidazo[1,2-a]pyrimidin-5(1H)-one] | 42 |  |  | 461 |  | 
5 | CC(c1cccc(F)c1)N1c2nc(N3CCOCC3)cc(=O)n2C[C@@]1(C)C(F)(F)F (single isomer, unassigned) [Example 22, (2S)-1-[(1R or 1S)-1-(3-Fluorophenyl)ethyl]-2-methyl-7-(morpholin-4-yl)-2-(trifluoromethyl)-2,3-dihydroimidazo[1,2-a]pyrimidin-5(1H)-one] | 59 |  |  | 872 |  | 
6 | C[C@@]1(C(F)(F)F)Cn2c(nc(N3CCOCC3)c(F)c2=O)N1Cc1ccccc1 [Example 19, (2S)-1-Benzyl-6-fluoro-2-methyl-7-(morpholin-4-yl)-2-(trifluoromethyl)-2,3-dihydroimidazo[1,2-a]pyrimidin-5(1H)-one] | 26 |  |  | 425 |  | 
7 | C[C@@]1(C(F)(F)F)Cn2c(nc(N3CCOCC3)cc2=O)N1Cc1cccc(F)c1F [Example 25, (2S)-1-(2,3-Difluorobenzyl)-2-methyl-7-(morpholin-4-yl)-2-(trifluoromethyl)-2,3-dihydroimidazo[1,2-a]pyrimidin-5(1H)-one] | 28 |  |  | 621 |  | 
8 | Cc1ccccc1C(=O)N1c2nc(N3CCOCC3)cc(=O)n2C[C@@]1(C)C(F)(F)F [Example 35, (2S)-2-Methyl-1-[(2-methylphenyl)carbonyl]-7-(morpholin-4-yl)-2-(trifluoromethyl)-2,3-dihydroimidazo[1,2-a]pyrimidin-5(1H)-one] | 32 |  |  | > 1000 |  | 

The remaining compounds from weak to strong by IC50 [1, 4], led by results:

Row | IC50 [1, 4] [nM] | IC50 ([1]; P-AKT-S473, PC3 cells) [nM] | IC50 ([3]; 2 hours) [nM] | IC50 ([3]; Homo sapiens, HeLa, 2 h) [nM] | Structure (SMILES) | inhibition at 0.1 µM ([2]; 0.1 μM) [%] | inhibition at 1 µM [2] [%]
9 | 18 |  |  | 703 | C[C@@]1(C(F)(F)F)Cn2c(nc(N3CCOCC3)cc2=O)N1Cc1csc2ccc(Cl)cc12 [Example 20, (2S)-1-[(5-Chloro-1-benzothiophen-3-yl)methyl]-2-methyl-7-(morpholin-4-yl)-2-(trifluoromethyl)-2,3-dihydroimidazo[1,2-a]pyrimidin-5(1H)-one] |  | 
10 | 16 |  |  |  | COc1cccc(CCN2c3nc(N4CCOCC4)cc(=O)n3C[C@@]2(C)C(F)(F)F)c1 [Example 26, (2S)-1-[2-(3-Methoxyphenyl)ethyl]-2-methyl-7-(morpholin-4-yl)-2-(trifluoromethyl)-2,3-dihydroimidazo[1,2-a]pyrimidin-5(1H)-one] | 14 | 75
11 | 13 |  |  | 314 | C[C@@]1(C(F)(F)F)Cn2c(nc(N3CCOCC3)cc2=O)N1Cc1ccc(F)c(Br)c1 [Example 24, (2S)-1-(3-Bromo-4-fluorobenzyl)-2-methyl-7-(morpholin-4-yl)-2-(trifluoromethyl)-2,3-dihydroimidazo[1,2-a]pyrimidin-5(1H)-one] |  | 
12 | 7 |  |  | > 1000 | C[C@@]1(C(F)(F)F)Cn2c(nc(N3CCOCC3)cc2=O)N1C(=O)c1ccccc1 [Example 21, (2S)-2-Methyl-7-(morpholin-4-yl)-1-(phenylcarbonyl)-2-(trifluoromethyl)-2,3-dihydroimidazo[1,2-a]pyrimidin-5(1H)-one] |  | 
13 | 6 |  |  | 261 | C[C@@]1(C(F)(F)F)Cn2c(nc(N3CCOCC3)cc2=O)N1CCc1cccc(Cl)c1 [Example 29, (2S)-1-[2-(3-Chlorophenyl)ethyl]-2-methyl-7-(morpholin-4-yl)-2-(trifluoromethyl)-2,3-dihydroimidazo[1,2-a]pyrimidin-5(1H)-one] |  | 52
